Assays:
[1] = molecular target: Cannabinoid receptor 1 (Homo sapiens, UniProt P21554)
[2] = molecular target: Glutamate receptor ionotropic, NMDA 1 (Rattus norvegicus, UniProt P35439)
[3] = molecular target: T1, Muscarinic acetylcholine receptor M2 (Homo sapiens, UniProt P08172); assay type: functional, cell-based
T1 sequence (P08172 whole entry): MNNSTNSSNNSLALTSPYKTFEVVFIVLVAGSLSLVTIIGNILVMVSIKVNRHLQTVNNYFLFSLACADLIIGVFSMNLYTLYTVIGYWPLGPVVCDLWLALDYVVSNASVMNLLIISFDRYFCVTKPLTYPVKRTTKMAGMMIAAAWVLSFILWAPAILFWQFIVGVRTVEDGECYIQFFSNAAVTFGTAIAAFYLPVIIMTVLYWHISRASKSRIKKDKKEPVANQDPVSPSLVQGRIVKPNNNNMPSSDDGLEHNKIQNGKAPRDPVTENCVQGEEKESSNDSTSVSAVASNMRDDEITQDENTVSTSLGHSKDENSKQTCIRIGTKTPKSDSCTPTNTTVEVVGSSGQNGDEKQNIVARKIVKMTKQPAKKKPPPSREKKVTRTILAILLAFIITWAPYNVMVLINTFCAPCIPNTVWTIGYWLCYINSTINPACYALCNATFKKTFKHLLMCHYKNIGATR

[4] = molecular target: T2, Glucocorticoid receptor (Homo sapiens, UniProt P04150)
T2 sequence (P04150 whole entry): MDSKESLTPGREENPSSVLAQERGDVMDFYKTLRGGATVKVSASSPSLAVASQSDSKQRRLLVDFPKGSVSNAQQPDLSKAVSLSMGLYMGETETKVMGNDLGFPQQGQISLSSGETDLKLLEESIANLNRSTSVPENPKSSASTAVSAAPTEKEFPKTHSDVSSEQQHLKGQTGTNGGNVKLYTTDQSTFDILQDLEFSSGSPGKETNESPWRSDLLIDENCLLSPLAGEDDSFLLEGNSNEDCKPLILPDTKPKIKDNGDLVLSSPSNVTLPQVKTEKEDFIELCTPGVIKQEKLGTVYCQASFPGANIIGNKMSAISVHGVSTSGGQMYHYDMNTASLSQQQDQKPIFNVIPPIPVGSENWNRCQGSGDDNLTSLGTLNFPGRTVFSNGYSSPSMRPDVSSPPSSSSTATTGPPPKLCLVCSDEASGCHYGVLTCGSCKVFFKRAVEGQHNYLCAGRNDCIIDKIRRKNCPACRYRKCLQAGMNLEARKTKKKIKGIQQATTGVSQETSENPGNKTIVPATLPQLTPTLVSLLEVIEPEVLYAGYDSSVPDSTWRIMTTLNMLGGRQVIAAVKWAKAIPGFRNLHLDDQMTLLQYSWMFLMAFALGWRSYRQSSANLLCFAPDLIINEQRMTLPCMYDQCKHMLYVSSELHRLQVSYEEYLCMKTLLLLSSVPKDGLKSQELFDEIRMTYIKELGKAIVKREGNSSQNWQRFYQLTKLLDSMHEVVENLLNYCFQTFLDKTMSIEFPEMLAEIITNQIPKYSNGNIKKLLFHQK

[5] = molecular target: Acetylcholinesterase (Homo sapiens, UniProt P22303); assay type: functional
Chain of Acetylcholinesterase (P22303 whole entry): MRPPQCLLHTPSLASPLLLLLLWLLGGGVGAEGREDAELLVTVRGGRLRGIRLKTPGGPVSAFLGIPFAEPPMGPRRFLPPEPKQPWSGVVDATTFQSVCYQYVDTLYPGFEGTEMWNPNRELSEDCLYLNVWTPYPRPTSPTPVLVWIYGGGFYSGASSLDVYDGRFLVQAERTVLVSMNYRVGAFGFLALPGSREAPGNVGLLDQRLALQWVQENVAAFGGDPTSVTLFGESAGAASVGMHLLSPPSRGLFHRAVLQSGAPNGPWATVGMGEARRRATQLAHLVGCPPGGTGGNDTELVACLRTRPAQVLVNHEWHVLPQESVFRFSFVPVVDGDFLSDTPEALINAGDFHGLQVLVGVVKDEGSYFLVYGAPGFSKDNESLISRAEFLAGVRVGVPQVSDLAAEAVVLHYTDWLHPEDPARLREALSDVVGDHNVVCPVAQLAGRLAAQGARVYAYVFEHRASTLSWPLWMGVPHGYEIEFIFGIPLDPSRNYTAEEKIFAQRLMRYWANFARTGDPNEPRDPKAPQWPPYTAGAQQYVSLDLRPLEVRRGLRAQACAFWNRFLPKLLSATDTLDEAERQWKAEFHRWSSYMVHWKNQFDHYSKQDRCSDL

[6] = molecular target: T3, 5-hydroxytryptamine receptor 1A (Homo sapiens, UniProt P08908)
T3 sequence (P08908 whole entry): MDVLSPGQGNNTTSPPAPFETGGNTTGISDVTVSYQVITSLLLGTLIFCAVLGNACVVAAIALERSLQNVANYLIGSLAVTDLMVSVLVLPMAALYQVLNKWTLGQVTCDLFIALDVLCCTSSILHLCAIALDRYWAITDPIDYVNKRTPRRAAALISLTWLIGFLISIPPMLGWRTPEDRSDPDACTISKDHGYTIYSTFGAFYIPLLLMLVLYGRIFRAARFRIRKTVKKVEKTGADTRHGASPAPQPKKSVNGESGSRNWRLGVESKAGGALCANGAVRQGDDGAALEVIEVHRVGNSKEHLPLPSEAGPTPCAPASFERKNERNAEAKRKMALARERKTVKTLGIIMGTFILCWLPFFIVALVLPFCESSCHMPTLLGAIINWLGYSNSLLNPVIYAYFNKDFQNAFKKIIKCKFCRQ

[7] = molecular target: 3',5'-cyclic-AMP phosphodiesterase 4A (Homo sapiens, UniProt P27815); assay type: functional
Chain of 3',5'-cyclic-AMP phosphodiesterase 4A (P27815 whole entry): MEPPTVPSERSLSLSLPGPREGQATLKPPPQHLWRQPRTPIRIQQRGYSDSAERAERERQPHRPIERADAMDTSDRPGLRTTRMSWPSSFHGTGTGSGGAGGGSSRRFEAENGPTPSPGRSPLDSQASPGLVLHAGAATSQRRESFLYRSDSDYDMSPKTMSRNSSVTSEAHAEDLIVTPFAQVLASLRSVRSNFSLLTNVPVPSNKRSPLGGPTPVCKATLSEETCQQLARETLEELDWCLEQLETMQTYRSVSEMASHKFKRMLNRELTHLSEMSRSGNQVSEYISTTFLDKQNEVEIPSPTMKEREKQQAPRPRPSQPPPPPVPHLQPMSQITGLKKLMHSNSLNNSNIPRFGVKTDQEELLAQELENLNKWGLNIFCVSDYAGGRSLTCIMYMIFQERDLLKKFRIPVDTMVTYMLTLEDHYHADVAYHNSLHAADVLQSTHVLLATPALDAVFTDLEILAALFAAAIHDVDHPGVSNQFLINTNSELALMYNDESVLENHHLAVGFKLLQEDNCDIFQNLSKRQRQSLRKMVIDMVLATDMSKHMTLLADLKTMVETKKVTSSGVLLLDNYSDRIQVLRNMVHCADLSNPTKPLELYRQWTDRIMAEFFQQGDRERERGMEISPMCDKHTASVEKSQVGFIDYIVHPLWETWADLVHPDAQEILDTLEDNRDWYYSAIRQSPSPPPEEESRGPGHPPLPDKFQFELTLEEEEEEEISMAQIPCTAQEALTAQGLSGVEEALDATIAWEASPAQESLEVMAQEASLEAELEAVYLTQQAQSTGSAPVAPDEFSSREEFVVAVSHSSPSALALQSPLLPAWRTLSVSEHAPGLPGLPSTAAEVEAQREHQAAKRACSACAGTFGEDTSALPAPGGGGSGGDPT

[8] = molecular target: T4, Thromboxane A2 receptor (Homo sapiens, UniProt P21731); assay type: functional, cell-based
T4 sequence (P21731 whole entry): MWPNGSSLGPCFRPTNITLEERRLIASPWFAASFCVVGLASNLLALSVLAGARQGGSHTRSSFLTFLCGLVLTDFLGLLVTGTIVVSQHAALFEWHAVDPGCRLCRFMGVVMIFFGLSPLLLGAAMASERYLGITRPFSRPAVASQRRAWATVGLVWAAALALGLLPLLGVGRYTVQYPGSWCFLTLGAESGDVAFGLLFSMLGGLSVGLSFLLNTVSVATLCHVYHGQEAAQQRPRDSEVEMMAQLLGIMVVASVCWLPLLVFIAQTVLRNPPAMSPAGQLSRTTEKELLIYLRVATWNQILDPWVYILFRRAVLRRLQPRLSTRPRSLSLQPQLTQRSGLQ

[9] = molecular target: Prostaglandin G/H synthase 1 (Homo sapiens, UniProt P23219); assay type: functional
Chain of Prostaglandin G/H synthase 1 (P23219 whole entry): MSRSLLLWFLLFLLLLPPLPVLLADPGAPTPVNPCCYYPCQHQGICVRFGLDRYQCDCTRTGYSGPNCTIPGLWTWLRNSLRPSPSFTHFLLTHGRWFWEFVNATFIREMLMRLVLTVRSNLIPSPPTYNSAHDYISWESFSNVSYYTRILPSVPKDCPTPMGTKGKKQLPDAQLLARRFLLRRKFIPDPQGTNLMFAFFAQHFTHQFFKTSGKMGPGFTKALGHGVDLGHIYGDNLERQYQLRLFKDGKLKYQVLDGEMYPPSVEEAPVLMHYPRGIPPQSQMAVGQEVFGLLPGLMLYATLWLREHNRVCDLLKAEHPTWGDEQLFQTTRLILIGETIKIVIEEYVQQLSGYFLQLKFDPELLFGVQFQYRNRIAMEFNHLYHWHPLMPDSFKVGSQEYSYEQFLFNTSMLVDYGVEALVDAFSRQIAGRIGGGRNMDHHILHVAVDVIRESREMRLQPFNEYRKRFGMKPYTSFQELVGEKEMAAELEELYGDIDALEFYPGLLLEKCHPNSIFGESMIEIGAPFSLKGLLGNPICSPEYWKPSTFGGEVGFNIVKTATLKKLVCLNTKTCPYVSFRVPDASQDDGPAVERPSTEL

[10] = molecular target: cGMP-inhibited 3',5'-cyclic phosphodiesterase 3A (Homo sapiens, UniProt Q14432); assay type: functional
Chain of cGMP-inhibited 3',5'-cyclic phosphodiesterase 3A (Q14432 whole entry): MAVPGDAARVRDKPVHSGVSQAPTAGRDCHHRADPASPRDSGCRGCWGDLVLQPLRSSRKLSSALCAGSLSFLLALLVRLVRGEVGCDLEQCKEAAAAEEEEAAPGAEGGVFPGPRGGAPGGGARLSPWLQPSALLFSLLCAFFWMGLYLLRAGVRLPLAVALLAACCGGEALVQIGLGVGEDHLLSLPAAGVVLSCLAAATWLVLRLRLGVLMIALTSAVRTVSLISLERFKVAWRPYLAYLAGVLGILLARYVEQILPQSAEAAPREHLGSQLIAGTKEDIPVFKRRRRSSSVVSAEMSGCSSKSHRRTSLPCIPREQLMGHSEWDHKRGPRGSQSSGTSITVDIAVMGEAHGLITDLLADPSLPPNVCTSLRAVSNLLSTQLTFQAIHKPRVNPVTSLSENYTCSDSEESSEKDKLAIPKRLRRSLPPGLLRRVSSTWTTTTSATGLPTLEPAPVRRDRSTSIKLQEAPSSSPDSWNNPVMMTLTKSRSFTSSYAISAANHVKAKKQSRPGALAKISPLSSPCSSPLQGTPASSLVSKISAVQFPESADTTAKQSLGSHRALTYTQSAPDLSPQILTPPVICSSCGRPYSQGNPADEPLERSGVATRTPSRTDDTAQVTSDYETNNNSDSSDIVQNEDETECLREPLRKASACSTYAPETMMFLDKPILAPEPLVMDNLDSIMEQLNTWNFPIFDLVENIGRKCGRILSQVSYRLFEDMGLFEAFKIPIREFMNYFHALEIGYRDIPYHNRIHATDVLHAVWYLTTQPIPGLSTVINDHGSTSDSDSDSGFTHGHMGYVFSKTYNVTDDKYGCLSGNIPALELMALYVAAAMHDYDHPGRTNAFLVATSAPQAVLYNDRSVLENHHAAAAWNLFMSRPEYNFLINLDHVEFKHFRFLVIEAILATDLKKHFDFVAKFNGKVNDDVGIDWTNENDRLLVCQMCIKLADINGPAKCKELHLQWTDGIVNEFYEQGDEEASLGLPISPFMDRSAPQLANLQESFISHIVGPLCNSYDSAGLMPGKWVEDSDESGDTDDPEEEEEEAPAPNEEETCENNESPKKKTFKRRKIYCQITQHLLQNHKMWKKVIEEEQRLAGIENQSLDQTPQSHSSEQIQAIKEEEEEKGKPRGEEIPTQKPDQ

[11] = molecular target: T5, Muscarinic acetylcholine receptor M1 (Homo sapiens, UniProt P11229); assay type: functional
T5 sequence (P11229 whole entry): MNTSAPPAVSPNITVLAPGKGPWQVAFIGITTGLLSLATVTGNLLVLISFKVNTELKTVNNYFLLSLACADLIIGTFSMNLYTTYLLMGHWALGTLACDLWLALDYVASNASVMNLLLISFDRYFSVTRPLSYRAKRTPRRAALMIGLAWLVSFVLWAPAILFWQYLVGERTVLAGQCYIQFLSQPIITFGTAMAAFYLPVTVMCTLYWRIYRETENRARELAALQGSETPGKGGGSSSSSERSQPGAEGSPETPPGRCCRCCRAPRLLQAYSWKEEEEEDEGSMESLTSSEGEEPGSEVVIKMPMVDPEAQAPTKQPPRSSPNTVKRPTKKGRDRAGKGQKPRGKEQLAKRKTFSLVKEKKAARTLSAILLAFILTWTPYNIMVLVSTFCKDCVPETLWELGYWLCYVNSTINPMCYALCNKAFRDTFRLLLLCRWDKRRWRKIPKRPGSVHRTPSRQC

[12] = molecular target: Muscarinic acetylcholine receptor M3 (Homo sapiens, UniProt P20309)
Chain of Muscarinic acetylcholine receptor M3 (P20309 whole entry): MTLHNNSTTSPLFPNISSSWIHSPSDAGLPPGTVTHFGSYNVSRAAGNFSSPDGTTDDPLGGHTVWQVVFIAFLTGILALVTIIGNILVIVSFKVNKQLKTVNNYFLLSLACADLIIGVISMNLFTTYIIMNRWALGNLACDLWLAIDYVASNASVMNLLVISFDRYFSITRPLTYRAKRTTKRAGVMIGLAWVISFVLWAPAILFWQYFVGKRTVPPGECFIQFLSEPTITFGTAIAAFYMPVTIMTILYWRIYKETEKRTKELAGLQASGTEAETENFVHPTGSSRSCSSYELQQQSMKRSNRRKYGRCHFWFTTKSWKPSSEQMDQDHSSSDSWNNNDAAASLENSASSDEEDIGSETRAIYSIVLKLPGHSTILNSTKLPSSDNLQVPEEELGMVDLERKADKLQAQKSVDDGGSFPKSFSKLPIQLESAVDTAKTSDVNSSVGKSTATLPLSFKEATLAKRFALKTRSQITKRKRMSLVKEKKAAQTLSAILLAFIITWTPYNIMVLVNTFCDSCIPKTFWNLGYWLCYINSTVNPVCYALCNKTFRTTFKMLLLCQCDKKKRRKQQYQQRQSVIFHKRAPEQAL
Further: assay procedure not described here.

Chain of Cannabinoid receptor 1 (P21554 whole entry): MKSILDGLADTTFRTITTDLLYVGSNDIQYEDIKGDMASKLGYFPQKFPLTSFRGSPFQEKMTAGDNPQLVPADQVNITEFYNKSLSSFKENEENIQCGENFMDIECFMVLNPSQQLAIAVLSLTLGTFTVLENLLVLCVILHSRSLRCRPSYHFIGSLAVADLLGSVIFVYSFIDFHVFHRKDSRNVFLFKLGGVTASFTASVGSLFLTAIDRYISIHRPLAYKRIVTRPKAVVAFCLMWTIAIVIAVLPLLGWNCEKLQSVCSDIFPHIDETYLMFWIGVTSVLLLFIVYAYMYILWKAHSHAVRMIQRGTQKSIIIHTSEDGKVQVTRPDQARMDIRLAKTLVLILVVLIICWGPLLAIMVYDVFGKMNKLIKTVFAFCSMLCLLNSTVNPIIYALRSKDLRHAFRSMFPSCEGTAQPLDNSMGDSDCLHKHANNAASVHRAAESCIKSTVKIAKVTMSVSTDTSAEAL

Row | Structure (SMILES) | AC50 [1] [µM] | AC50 [2] [µM] | AC50 [3] [µM] | AC50 [4] [µM] | AC50 [5] [µM] | AC50 [6] [µM] | AC50 [7] [µM] | AC50 [8] [µM] | AC50 [9] [µM] | AC50 [10] [µM] | AC50 [11] [µM] | AC50 [12] [µM]
1 | CCN(CC)CCNC(=O)c1cc(Cl)c(N)cc1OC [METOCLOPRAMIDE] | > 10 | > 10 |  |  |  |  |  |  |  |  |  | 
2 | CCOC(=O)[C@H](CCc1ccccc1)N[C@@H](C)C(=O)N1CCC[C@H]1C(=O)O | > 10 | > 10 | > 10 | > 30 |  |  |  |  |  |  |  | 
3 | CN(C)CCCN1c2ccccc2CCc2ccc(Cl)cc21 [CLOMIPRAMINE] | > 10 |  | > 10 |  | > 30 | 5.33 |  |  |  |  |  | 
4 | O=C(O)c1cc(-c2ccc(F)cc2F)ccc1O [DIFLUNISAL] | > 10 | > 10 | > 10 | > 10 |  |  |  |  |  |  |  | 
5 | CC(C)C(=O)Nc1ccc([N+](=O)[O-])c(C(F)(F)F)c1 [FLUTAMIDE] | > 10 | > 10 | > 10 |  | > 30 | > 30 | > 30 | > 30 | > 30 | > 30 |  | 
6 | CN1C(=O)CC(C)(c2ccccc2)C1=O (stereo not drawn) [METHSUXIMIDE] | > 10 | > 10 | > 10 | > 10 |  |  |  |  |  |  | > 10 | > 30
7 | NC(N)=Nc1nc(CSCCC(N)=NS(N)(=O)=O)cs1 [FAMOTIDINE] | > 10 | > 10 | > 10 | > 30 |  |  |  |  |  |  |  | 
8 | NC[C@H]1CC[C@H](C(=O)O)CC1 [TRANEXAMIC ACID] | > 10 | > 10 | > 10 |  |  |  |  |  |  |  |  | 
9 | CCC[C@@H]1C[C@@H](C(=O)N[C@@H]([C@H]2O[C@H](SC)[C@H](O)[C@@H](O)[C@H]2O)[C@H](C)Cl)N(C)C1 [CLINDAMYCIN] | > 10 | > 10 | > 10 |  |  |  |  |  |  |  |  | 
10 | OCCN1CCN(CCCN2c3ccccc3C=Cc3ccccc32)CC1 [OPIPRAMOL] |  | > 30 | > 30 | > 30 | > 30 | 9.25 | > 30 | > 30 | 27.5 | > 30 | > 30 | > 30
11 | CC[C@H](C)C(=O)O[C@H]1C[C@H](O)C=C2C=C[C@H](C)[C@H](CC[C@@H](O)C[C@@H](O)CC(=O)O)[C@H]21 [PRAVASTATIN] | > 10 | > 10 | > 30 |  |  |  |  |  |  |  |  | 
12 | C[C@H]1C[C@@H]2[C@H]([C@@H](O)C[C@@]3(C)[C@H]2CC[C@]3(O)C(=O)CO)[C@@]2(C)C=CC(=O)C=C12 [METHYLPREDNISOLONE] | > 10 | > 10 | > 10 |  |  |  |  |  |  |  |  | 
13 | NS(=O)(=O)c1cc2c(cc1Cl)NCNS2(=O)=O [HYDROCHLOROTHIAZIDE] | > 10 | > 10 | > 10 | > 30 |  |  |  |  |  |  |  | 
14 | NC(=O)c1cnccn1 [PYRAZINAMIDE] | > 30 | > 30 | > 30 | > 30 | > 30 | > 30 | > 30 | > 30 | > 30 | > 30 |  | 
15 | COC(=O)[C@@H]1CC2=CC(=O)CC[C@]2(C)[C@@]23O[C@@H]2C[C@@]2(C)[C@@H](CC[C@@]24CCC(=O)O4)[C@H]13 [EPLERENONE] | > 10 | > 10 | > 30 |  |  |  |  |  |  |  | > 30 | > 30
16 | O=C(CCCCCCC(=O)Nc1ccccc1)NO [VORINOSTAT] | > 10 | > 30 | > 30 |  |  |  |  |  |  |  | > 30 | > 30
17 | NC[C@H]1O[C@H](O[C@H]2[C@H](O)[C@@H](O[C@H]3O[C@H](CO)[C@@H](O)[C@H](N)[C@H]3O)[C@H](N)C[C@@H]2N)[C@H](O)[C@@H](O)[C@@H]1O [KANAMYCIN] | > 10 | > 10 | > 10 | > 10 |  |  |  |  |  |  |  | 
18 | COc1cc(Nc2c(C#N)cnc3cc(OCCCN4CCN(C)CC4)c(OC)cc23)c(Cl)cc1Cl [BOSUTINIB] | > 10 | > 10 |  | > 30 | 15.6 | 14.2 | > 30 | > 10 | > 30 | > 30 | > 10 | 
19 | C#C[C@]1(O)CC[C@H]2[C@@H]3CCc4cc(O)ccc4[C@H]3CC[C@@]21C [ETHINYL ESTRADIOL] | > 10 | > 10 | > 10 | 0.12 | > 30 | > 30 | 20.1 | > 30 | > 30 | > 30 |  | 
20 | Nc1nc(N)c2nc(-c3ccccc3)c(N)nc2n1 | > 30 | > 30 | > 30 | > 30 | > 30 | > 30 | 20.8 | > 30 | > 30 | > 30 |  | 
21 | CC(C)(C(=O)c1cccnc1)c1cccnc1 [METYRAPONE] | > 10 | > 10 | > 10 | > 10 |  |  |  |  |  |  |  | 
22 | Oc1ncnc2[nH]ncc12 [ALLOPURINOL] | > 10 | > 10 | > 10 | > 30 | > 30 | > 30 | > 30 | > 30 | > 30 | > 30 |  | 
23 | C[C@H]1O[C@H](O[C@H]2[C@H](O)[C@@H](O)[C@@H](O[C@H]3[C@H](O)[C@@H](O)C(O)O[C@@H]3CO)O[C@@H]2CO)[C@H](O)[C@@H](O)[C@@H]1N[C@H]1C=C(CO)[C@@H](O)[C@H](O)[C@H]1O (stereo partly drawn) [ACARBOSE] | > 10 | > 10 | > 10 | > 30 | > 30 | > 30 | 5.08 | > 30 | 24.4 | 17.6 |  | 

Reference: ChEMBL document CHEMBL5291721, “A preclinical secondary pharmacology resource illuminates target-adverse drug reaction associations of marketed drugs” (Nat Commun, 2023)
